This is an account of results in patent US20260125371A1, “METHOD FOR INHIBITING CLOSTRIDIOIDES DIFFICILE SPORE GERMINATION” (UNIVERSITY OF NOTRE DAME DU LAC, priority 2022, published 2026).

A value given as a limit tells only on which side of the number the result lay.

In one test the test system is C. difficile ATCC 43255. The test is classed as cell-based, Clostridioides difficile.
Test [1] relates to Lactobacillus reuteri HM-102. The experiment in a line: MIC against Lactobacillus reuteri (gut bacteria). It counts as cell-based. The note with it: Limosilactobacillus reuteri, HM102.
The subject of test [2] is C. difficile strain ATCC43255 spores. The experiment in a line: Spore germination inhibition assay. It counts as cell-based, Clostridioides difficile. The note with it: Clostridioides difficile, 1 h, compound 45 μM, germinant 6 mM taurocholate and 12 mM glycine, OD600 over 60 min, duplicate.
The test system of test [3] is B. licheniformis ATCC 12759. The experiment in a line: MIC against B. licheniformis. It counts as cell-based. The note with it: Bacillus licheniformis, ATCC12759.
Test [4] relates to S. epidermidis ATCC 35547. The experiment in a line: MIC against S. epidermidis. It counts as cell-based. The following applies: Staphylococcus epidermidis, ATCC35547.

One may read the MIC as the least concentration at which growth counts as inhibited. Usually inhibition stands for the relative decrease from the control value, in per cent. In the case of `O=[N+]([O-])c1cnc(-c2nc(-c3ccc(OC4CCCC4)cc3)no2)[nH]1` [Compound 57, 3-(4-(Cyclopentyloxy)phenyl)-5-(4-nitro-1H-imidazol-2-yl)-1,2,4-oxadiazole], the “passages after which MIC increased 2-fold” value with C. difficile ATCC 43255 (2-fold MIC increase) is given as 8 passages. Further, the “passages after which MIC increased 4-fold” value in the test with C. difficile ATCC 43255 (4-fold MIC increase) was found to be 14 passages. Besides, the “passages after which MIC increased 8-fold” value with C. difficile ATCC 43255 (8-fold MIC increase) worked out at 20 passages. Moreover, the “increase in MIC on serial passage” value in the test on C. difficile ATCC 43255 (whole serial passage experiment (30 passages)) was determined as 8 fold. The molecule also displayed an MIC in test [1] greater than 128 µg/mL. For the same molecule, the inhibition at 45 µM in test [2] was less than 10%.
Turning to `Cc1ncc([N+](=O)[O-])n1CCO` [MTZ, metronidazole], the MIC was greater than 256 µg/mL in test [3] and greater than 128 µg/mL in test [4].
